From US7291638B2, “3-amido-1,2-benzoisoxazole derivatives, process for preparation, and use thereof” (Dongwha Pharm. Ind. Co., Ltd., priority 2001, dated 2007)
Where two headings read alike, the source gives them in different places.

Assays:
[1] = Pharmacokinetics test in rats (oral; plasma concentration of the compound of formula 2 by HPLC); type: in vivo, rat
Procedure: Male white rats (Sprague-Dawley) having body weights of 230˜260 g were used, 3˜4 rats were tested for a drug. Rats were fasted for 18˜20 hours before the drug was administered. The weight of rat was measured on the day of the experiment, the drug was administered orally to the rats according to dosage. After administration, rats were lightly anesthetized with diethyl ether. At […], 0.17, 0.5, 1.0, 1.5, 3.0, 5.0, 8.0 hours, the blood was collected from orbit vein of the rats by canulation. The collected blood was centrifuged, and the plasma was isolated. To determine concentration of the drug in plasma, HPLC was carried out as follows. Acetonitrile containing internal standard substance and the isolated plasma was mixed in the same amount, followed by centrifuging at 12,000 rpm. The supernatent was applied to HPLC, bioavailability of the compounds prepared in EXAMPLES was measured by analyzing a plasma concentration of the compound of formula 2.
Pharmacokinetics parameters were measured by noncompartmental analysis, using WinNolin (ver. 1.0 Scientific Consulting Inc., USA). Time and maximum plasma concentration were registered by observed data, half life was calculated by linear regression analysis of terminal elimination phase.

osteoclast cell = experiment: Change in the number of osteoclast cell in osteoporotic rats induced by ovariectomy; type: in vivo, rat; details: for osteoclast cells inducing the osteolysis (in words): osteoporotic rats induced by ovariectomy, group administered the drug; for number of osteoclast cell, Tibia Left / number of osteoclast cell, Tibia Right / number of osteoclast cell, femur Left / number of osteoclast cell, femur Right: ovariectomized rats, cells within 1 mm^2 area, 10 sections, mean±SD, PEG 100 solution, intramuscular injection, 40 days; for number of osteoclast cell, femur Right: same concentration as formula 2 (100 mg per kg)
Procedure: (§1) To investigate therapeutic value of the osteoporosis to ovariectomized rats, change in the number of osteoclast cell and area ratio of trabecular bone (volume %) were measured.
(§2) After 25 female white rats purchased from Chales River (Japan) were adjusted to a new environment, temperature of 20˜25° C. and relative humidity of 30˜35%. The 5 rats were positioned in a hutch, feed (Sam Yang corporation) and water were supplied to the rats. 20 rats had the operation for the removal of an ovary, 5 rats had the Sham operation for opening and suturing the abdominal cavity, used as Sham control group.
(§3) Also, to compare drug efficacies of EXAMPLE and the compound of formula 2, 5 rats removed of the ovary were used as experimental group. The compound of formula 2 was dissolved in injectable distilled water and administered to the rats orally in an amount of 100 mg per kg for 40 days from 10 weeks after ovariectomy or Sham-operation, using oral sonde. 5 ml/kg was administered to the rats. […] 5 ml/kg was administered to the rats.
(§4) After administration terminated, the femur and tibia were removed from the animals, and fixed in 10% neutral formalin. The fixed tissue was decalcified in a solution (solution mixed 24.4% formic acid and 0.5 N sodium hydroxide) for 5 days, embedded in paraffin and 3˜4 μm sections were prepared. After that prepared section were dyed by hematoxylin-eosin.
Change in the number of osteoclast cell was calculated by mean±standard deviation through the number of the osteoclast cell existed within 1 mm^2 area at the 10 sections. The experiment group administered was compared with the control group not and Sham group.

[2] = system: osteoporotic rat induced by ovariectomy; experiment: Area ratio of trabecular bone in osteoporotic rats induced by ovariectomy; type: in vivo; details: for area ratio of trabecular bone, Femur Left / area ratio of trabecular bone, Femur Right / area ratio of trabecular bone, Tibia Left / area ratio of trabecular bone, Tibia Right: ovariectomized rats, 40 days
Procedure: as §1, §2, §3, §4
Also, the area ratio of trabecular bone was calculated at the section of the femur and tibia respectively, through the equation.

[3] = male Sprague-Dawley rats, 50 mg/kg, vehicle DW (distilled water)
[4] = male Sprague-Dawley rats, 50 mg/kg, vehicle DW (distilled water), analyte compound of formula 2 in plasma
[5] = male Sprague-Dawley rats, 100 mg/kg, vehicle DW (distilled water)
[6] = injectable distilled water, oral, 100 mg per kg
[7] = osteoporotic rats induced by ovariectomy
[8] = PEG 100 solution, intramuscular injection

Molecule: {5-[4-(4-diisopropylcarbamoyl-2-methoxy-phenoxy)-butoxy]-benzo[d]isoxazole-3-ylcarbamoyl}-methyl-ammonium methane sulfonic acid salt [Example 1]
- Tmax [1, 3]: 30 min
- Total AUC [1, 3]: 5720 ng·h/mL
- Cmax [1, 4]: 1530 ng/mL
- Cmax [1, 5]: 1510 ng/mL
- Tmax [1, 5]: 30 min
- Total AUC [1, 5]: 11080 ng·h/mL
- osteoclast cells inducing the osteolysis (in words) (osteoclast cell): significantly decreased
- number of osteoclast cell, Tibia Left (osteoclast cell): 5.40 ± 2.76*.^##
- number of osteoclast cell, Tibia Right (osteoclast cell): 5.30 ± 2.00*.^#
- number of osteoclast cell, femur Left (osteoclast cell): 5.10 ± 2.38*.^#
- number of osteoclast cell, femur Right (osteoclast cell): 4.90 ± 1.52*.^#

Molecule: COc1cc(C(=O)N(C(C)C)C(C)C)ccc1OCCCCOc1ccc2c(N)noc2c1 [Formula 2, reference compound]
- Total AUC ([1]; male Sprague-Dawley rats, 50 mg/kg, vehicle DMSO): 190 ng·h/mL
- Cmax ([1]; male, Sprague-Dawley, rat, plasma, po, 50 mg/kg, male Sprague-Dawley rats, 50 mg/kg, vehicle DMSO, read-out: Cmax): 470 ng/mL
- Tmax ([1]; male, Sprague-Dawley, rat, plasma, po, 50 mg/kg, male Sprague-Dawley rats, 50 mg/kg, vehicle DMSO, read-out: Tmax): 10.2 min
- Cmax ([1]; male, Sprague-Dawley, rat, plasma, po, 50 mg/kg, male Sprague-Dawley rats, 50 mg/kg, vehicle DW + T (distilled water + tween 80), read-out: Cmax): 80 ng/mL
- Tmax ([1]; male, Sprague-Dawley, rat, plasma, po, 50 mg/kg, male Sprague-Dawley rats, 50 mg/kg, vehicle DW + T (distilled water + tween 80), read-out: Tmax): 90 min
- drug absorption (in words) ([1]; rat, 50 mg per kg, dissolved in distilled water and tween 80): no drug was absorbed
- half-life ([1]; rat, plasma, male Sprague-Dawley rats, 50 mg/kg, vehicle DMSO): 19.2 min
- area ratio of trabecular bone, Femur Left [2, 6]: 31.38 ± 7.88*.^## volume %
- area ratio of trabecular bone, Femur Right [2, 6]: 31.69 ± 9.83 volume %
- area ratio of trabecular bone, Tibia Left [2, 6]: 28.22 ± 5.54 volume %
- area ratio of trabecular bone, Tibia Right [2, 6]: 29.35 ± 11.37 volume %

Molecule: COc1cc(C(=O)N(C(C)C)C(C)C)ccc1OCCCCOc1ccc2onc(NC(=O)[C@H](C)N)c2c1.CS(=O)(=O)O [Example 2, (1S)-1-{5-[4-(4-diisopropylcarbamoyl-2-methoxy-phenoxy)-butoxy]-benzo[d]isoxazole-3-ylcarbamoyl)-ethyl-ammonium methane sulfonic acid salt]
- area ratio of trabecular bone compared to the control group (in words) [2, 7]: excellently increased
- therapeutic value (area ratio of the trabecular bone) compared with the compound of formula 2 (in words) [2, 7]: more distinguished therapeutic value than the compound of formula 2
- area ratio of trabecular bone, Femur Left [2, 8]: 41.95 ± 8.78 volume %
- area ratio of trabecular bone, Tibia Left [2, 8]: 40.12 ± 7.20**.^# volume %
- area ratio of trabecular bone, Tibia Right [2, 8]: 35.58 ± 9.55*.^## volume %
- area ratio of trabecular bone, Femur Right ([2]; PEG 100 solution, intramuscular injection, same concentration as formula 2 (100 mg per kg)): 33.93 ± 3.71*.^## volume %
- osteoclast cells inducing the osteolysis (in words) (osteoclast cell): significantly decreased
- number of osteoclast cell, Tibia Left (osteoclast cell): 4.50 ± 1.60*.^#
- number of osteoclast cell, Tibia Right (osteoclast cell): 5.63 ± 1.30*.^#
- number of osteoclast cell, femur Left (osteoclast cell): 4.50 ± 1.69*.^#
- number of osteoclast cell, femur Right (osteoclast cell): 5.00 ± 1.51*.^##

Molecule: COc1cc(C(=O)N(C(C)C)C(C)C)ccc1OCCCCOc1ccc2onc(NC(=O)[C@@H](N)C(C)C)c2c1.CS(=O)(=O)O [Example 4, (1S)-1-{5-[4-(4-diisopropylcarbamoyl-2-methoxy-phenoxy)-butoxy]-benzo[d-]isoxazole-3-ylcarbamoyl)-2-methyl-propyl-ammonium methane sulfonic acid salt]
- T1/2 [1, 3]: 66.6 min
- Tmax [1, 3]: 30 min
- Total AUC [1, 3]: 2450 ng·h/mL
- Cmax [1, 4]: 980 ng/mL
